Source: US11229642B2, “Composition and method for reducing neutropenia” (BeyondSpring Pharmaceuticals, Inc., priority 2016, dated 2022)
Like-named read-outs stand apart in the source and are kept apart here.

Columns and labels:
[1] = test system: cis-platin induced neutropenia; format: in vivo, Male Sprague-Dawley rats
From the text: Male Sprague-Dawley rats were first treated with cis-platin or vehicle saline (control). […] Each test group included 6 rats.
The ANC decreased following cisplatin administration.

[2] = test system: cyclophosphamide-induced neutropenia; conditions: for ANCs (Mean ± SD): Day −1 (pre-dose baseline), N = 5 rats per group
Description: The control sample contained 7.1% Tween 80 (v/v), 25.5% Propylene glycol (v/v), and 67.4% D5W (5% dextrose in water) (v/v). Each test group included 15 rats.
Blood collection was performed for absolute neutrophil counts in blood samples collected at Day −1 (pre-dose), Day 2 (24 h), Day 3 (48 h), Day 10 (9 days) and Day 15 (14 days).
These were expressed as a percentage of the control level on Day 3.

[3] = test system: doxorubicin induced neutropenia; assay: Example 3: ANC in doxorubicin induced neutropenia; format: in vivo, Male Sprague-Dawley rats; conditions: for ANC level expressed as Percent Naïve Group (% Naïve): doxorubicin 3 mg/kg, plinabulin 7.5 mg/kg in the combination
Description: Male Sprague-Dawley rats were first treated with doxorubicin or vehicle saline (control). […] Each test group included 6 rats. The doxorubicin was administered intravenously, and plinabulin was administered through intraperitoneal injection.

[4] = test system: topotecan induced neutropenia; assay: Example 5: ANC in topotecan induced neutropenia; format: in vivo, adult male Sprague-Dawley rats
Description: Topotecan (0.25 or 1.0 mg/kg IV) was administered to adult male Sprague-Dawley rats on Days 1, 3 and 5. Topotecan was administered by intravenous infusion over a period of 30 minutes using a syringe infusion pump and sterile disposable syringes at a dose volume of 10 mL/kg.
Plinabulin (3.75 mg/kg, IP) was dosed 1 hour post topotecan following each topotecan dose. Plinabulin (7.5 mg/kg IP) was dosed 1 hour after the topotecan dose (0.25 mg/kg) on Day 1 only.
Blood collection was performed Days −2, 0, 2, 4, 6, 7, 8, 9, 10 for the pilot and Days −2, 0, 2, 3, 4, 5, 6, 7, 8, 10, 15 for the main study. Blood samples collected on day 3 were analyzed for total and differential blood cell counts.

[5] = test system: neutropenia caused by cyclophosphamide; assay: Example 1: neutrophil count after cyclophosphamide, plinabulin or the combination; format: in vivo, male Sprague-Dawley rats; conditions: all rats, Days −1, 2, 3 and 10; FIG. 3
Description: Fifteen rats each were placed in 4 treatment groups according to Table 1. The indicated doses were administered through intraperitoneal injection on Day 1 with Administration 2 being given 1 hour following Administration 1.
D5W is 5% dextrose in water for injection. For groups that included administration of plinabulin, plinabulin is first dissolved in the Tween 80-PG mixture and then diluted with D5W.
The animals were randomized based on body weight and assigned to groups. Before the initiation of dosing, any assigned animals considered unsuitable for use in the study were replaced by alternate animals obtained from the same shipment and maintained under the same environmental conditions.
Blood was collected by jugular venipuncture for Day −1 bleeds and terminally via abdominal aorta under anesthesia for Day 2 (5 rats per Group i.e. total 20 rats), Day 3 (5 rats per Group i.e. total 20 rats) and Day 10 (5 rats per Group i.e. total 20 rats). After collection, the samples were tested for total and differential cell counts. Five rats per group were terminated on Days 2, 3, and 10. Animals were anesthetized with isoflurane (1-5%) and ˜1-2.0 mL of blood will be collected via abdominal aorta. After collection, 0.3 mL was transferred to EDTA tubes and analyzed for total and differential cell counts. […]

SMILES: N.N.[Cl][Pt][Cl] [Cisplatin, reference compound]
- ANCs ([1]; Day 3 (cisplatin ANC nadir), cisplatin 6.5 mg/kg alone): 0.93 ± 0.28 10^3 Cells/μL
- ANCs ([1]; Day −1 (predose), cisplatin 6.5 mg/kg group): 2.03 ± 0.81 10^3 Cells/μL
- Day 3 ANCs Expressed as Percent of Baseline (Day −1) ([1]; cisplatin 6.5 mg/kg alone): 45.8%

SMILES: O=P1(N(CCCl)CCCl)NCCCO1 (centres unmarked) [Cyclophosphamide]
- ANCs (Mean ± SD) [2]: 1.68 ± 0.19 10^3 Cells/μL
- induction of neutropenia ([2]; single intra-peritoneal injection of cyclophosphamide): induced neutropenia in rats at around 48 h

SMILES: COc1cccc2c1C(=O)c1c(O)c3c(c(O)c1C2=O)C[C@@](O)(C(=O)CO)C[C@@H]3O[C@H]1C[C@H](N)[C@H](O)[C@H](C)O1 [Doxorubicin]
- time after administration at which neutropenia effect of doxorubicin was seen ([3]; ANC as percentage of naïve animals, severity increased until Day 5): ≤ 24 h
- ANC level, Mean ([3]; Day 2, doxorubicin 3.0 mg/kg IV alone): 4.37 ± 10^3/μL
- ANC level expressed as Percent Naïve Group (% Naïve) ([3]; Day 2): 52.6%
- ANC level, Mean ([3]; Day 3, doxorubicin 3.0 mg/kg IV alone): 0.88 ± 10^3/μL
- ANC level expressed as Percent Naïve Group (% Naïve) ([3]; Day 3): 50.9%
- ANC level, Mean ([3]; Day 4, doxorubicin 3.0 mg/kg IV alone): 1.02 ± 10^3/μL
- ANC level expressed as Percent Naïve Group (% Naïve) ([3]; Day 4): 30.8%
- ANC level, Mean ([3]; Day 5, doxorubicin 3.0 mg/kg IV alone): 0.65 ± 10^3/μL
- ANC level expressed as Percent Naïve Group (% Naïve) ([3]; Day 5): 19.2%
- ANC level, Mean ([3]; Day 8, doxorubicin 3.0 mg/kg IV alone): 0.97 ± 10^3/μL
- ANC level expressed as Percent Naïve Group (% Naïve) ([3]; Day 8): 32.3%
- ANC level, Mean ([3]; Day −1 (pre-dose), doxorubicin 3.0 mg/kg IV group): 1.79 ± 10^3/μL
- induction of neutropenia ([3]; doxorubicin 3.0 mg/kg): induced a long-lasting neutropenia
- duration of ANC decrease following doxorubicin administration ([3]; doxorubicin 3 mg/kg IV single dose): at least 8 days

SMILES: CC(C)(C)c1[nH]cnc1/C=c1\[nH]c(=O)/c(=C/c2ccccc2)[nH]c1=O [Plinabulin, (3Z,6Z)-3-Benzylidene-6-{[5-(2-methyl-2-propanyl)-1H-imidazol-4-yl]methylene}-2,5-piperazinedione]
- effect of plinabulin on topotecan-induced neutropenia ([4]; plinabulin 3.75 and 7.5 mg/kg IP, one hour after topotecan): significantly reduced the topotecan-induced neutropenia
- ANCs (Mean ± SD) [2]: 1.69 ± 0.21 10^3 Cells/μL
- ANCs ([1]; Day 3, plinabulin 4.9 mg/kg alone): 2.42 ± 0.73 10^3 Cells/μL
- ANCs ([1]; Day 3, plinabulin 7.5 mg/kg alone): 4.55 ± 1.41 10^3 Cells/μL
- ANCs ([1]; Day −1 (predose), plinabulin 4.9 mg/kg group): 1.98 ± 0.47 10^3 Cells/μL
- ANCs ([1]; Day −1 (predose), plinabulin 7.5 mg/kg group): 2.12 ± 0.25 10^3 Cells/μL
- ANC levels vs predose levels, plinabulin one hour post cisplatin ([1]; plinabulin 2.3 mg/kg, 4.9 mg/kg and 7.5 mg/kg one hour post cisplatin, Day 3): not significantly different from the predose levels
- Day 3 ANCs Expressed as Percent of Baseline (Day −1) ([1]; plinabulin 4.9 mg/kg alone): 122.2%
- change of ANC levels by plinabulin alone ([1]; plinabulin 4.9 mg/kg alone, Day 3 vs predose): did not change ANC levels
- Day 3 ANCs Expressed as Percent of Baseline (Day −1) ([1]; plinabulin 7.5 mg/kg alone): 214.6%
- reduction of neutropenia caused by cyclophosphamide, time course [5]: reduced the neutropenia caused by cyclophosphamide
- ANC level, Mean ([3]; Day 2, plinabulin 7.5 mg/kg IP alone): 5.24 ± 10^3/μL
- ANC level, Mean ([3]; Day 3, plinabulin 7.5 mg/kg IP alone): 1.98 ± 10^3/μL
- ANC level, Mean ([3]; Day 4, plinabulin 7.5 mg/kg IP alone): 2.17 ± 10^3/μL
- ANC level, Mean ([3]; Day 5, plinabulin 7.5 mg/kg IP alone): 2.13 ± 10^3/μL
- ANC level, Mean ([3]; Day 8, plinabulin 7.5 mg/kg IP alone): 3.18 ± 10^3/μL
- ANC level, Mean ([3]; Day −1 (pre-dose), plinabulin 7.5 mg/kg IP group): 2.02 ± 10^3/μL
- ANC in plinabulin only treated rats vs naïve animals ([3]; plinabulin 7.5 mg/kg IP alone, all time points): not statistically different from naïve animals at any time point
- effect of plinabulin on doxorubicin effect (ANC), Days 2 and 3 ([3]; plinabulin 7.5 mg/kg, Days 2 and 3 post dose): significantly diminished the effect of doxorubicin
- effect of plinabulin on doxorubicin-induced neutropenia, days 5 and 8 ([3]; plinabulin 7.5 mg/kg, days 5 and 8): ameliorated the doxorubicin-induced neutropenia to a lesser degree
- effect of plinabulin on doxorubicin-induced neutropenia ([3]; plinabulin 3.5 and 7.5 mg/kg IP, one hour after doxorubicin): significantly reduced the doxorubicin-induced neutropenia

SMILES: CC[C@@]1(O)C(=O)OCc2c1cc1n(c2=O)Cc2cc3c(CN(C)C)c(O)ccc3nc2-1 [topotecan, reference compound]
- induction of neutropenia ([4]; topotecan 1 or 0.25 mg/kg IV on Days 1, 3 and 5, FIGS. 11A, 11B): induced a long-lasting neutropenia
